Measured values as given in the supplement of paper PMC10307832.

Legend:
Experiment in all cases: relative viability (nuclei count vs DMSO), 5 days (fraction); higher = more cells survive
TPCA-1 + Tozasertib = compound: C1=CC(=CC=C1C2=CC(=C(S2)NC(=O)N)C(=O)N)F [TPCA-1] + Cc1cc(Nc2cc(N3CCN(C)CC3)nc(Sc3ccc(NC(=O)C4CC4)cc3)n2)n[nH]1 [Tozasertib] (partner 0.1 µM)
How it was run: (§1)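 Medians of duplicate plates are given as relative viability. That measure is the nuclei count in treated wells divided by the count in vehicle wells. Counts were taken on 4× images of lung cancer cell lines in 1536-well plates, 5 days after pin-tool dosing the day after seeding with one drug alone or a fixed anchor-drug dose plus five library-drug doses (not always all listed) in √10 steps.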

[1] = compound: C[C@]12O[C@H](C[C@]1(O)CO)n1c3ccccc3c3c4c(c5c6ccccc6n2c5c31)CNC4=O [Lestaurtinib] + O=C(CCCCCCC(=O)Nc1ccccc1)NO [Vorinostat] (partner 1 µM)
How it was run: as §1

[2] = compound: C1/C(=C\C2=CC=CS2)/C(=O)/C(=C/C3=CC=CS3)/C1 + CC1(C)CCC(c2ccc(Cl)cc2)=C(CN2CCN(c3ccc(C(=O)NS(=O)(=O)c4ccc(N[C@H](CCN5CCOCC5)CSc5ccccc5)c(S(=O)(=O)C(F)(F)F)c4)cc3)CC2)C1 [Navitoclax] (partner 0.5 µM)
How it was run: as §1

[3] = compound: C1/C(=C\C2=CC=CS2)/C(=O)/C(=C/C3=CC=CS3)/C1 + Cc1nc(NC(=O)N2CCC[C@H]2C(N)=O)sc1-c1ccnc(C(C)(C)C(F)(F)F)c1 [Alpelisib] (partner 2 µM)
How it was run: as §1

Cell Line: UMC-11
- relative viability (TPCA-1 + Tozasertib; first compound 0.04 µM): 0.208
- relative viability (TPCA-1 + Tozasertib; first compound 0.1265 µM): 0.207
- relative viability (TPCA-1 + Tozasertib; first compound 0.4 µM): 0.216
- relative viability (TPCA-1 + Tozasertib; first compound 1.265 µM): 0.178
- relative viability (TPCA-1 + Tozasertib; first compound 4 µM): 0.187
- relative viability ([1]; first compound 0.005 µM): 0.367
- relative viability ([1]; first compound 0.01581 µM): 0.36
- relative viability ([1]; first compound 0.05 µM): 0.323
- relative viability ([1]; first compound 0.1581 µM): 0.182
- relative viability ([1]; first compound 0.5 µM): 0.118
- relative viability ([2]; first compound 0.2 µM): 0.302
- relative viability ([2]; first compound 0.6325 µM): 0.362
- relative viability ([2]; first compound 2 µM): 0.307
- relative viability ([2]; first compound 20 µM): 0.307
- relative viability ([3]; first compound 0.2 µM): 1.04
- relative viability ([3]; first compound 0.6325 µM): 1.1
- relative viability ([3]; first compound 2 µM): 0.847
- relative viability ([3]; first compound 20 µM): 0.952
